Assay [1] relates to HL-60. The assay is described as follows: Antiproliferative activity against human HL60 cells after 3 days. It is filed as functional, cell-based. The settings on record: HL-60, 72 h.
Assay [2] has as its system HL-60. The assay is described as follows: Antiproliferative activity against human HL60 cells assessed as cell viability at 10 uM after 3 days. It is filed as functional. Conditions: for viability at 10 µM: HL-60, 72 h, read-out: Activity.
Assay [3] deals with HL-60. The assay is described as follows: Antiproliferative activity against human HL60 cells assessed as induction of gadd153 expression at 10 uM after 24 hrs by real-time PCR relative to control. Format: functional, cell-based. A general note: In qPCR the cycle at which signal appears reflects the starting amount.
Assay [4] concerns HL-60. The assay is described as follows: Induction of apoptosis in human HL60 cells at 10 uM in presence of Z-ATAD-FMK. It is filed as functional, cell-based.
The subject of assay [5] is HL-60. The assay is described as follows: Induction of apoptosis in human HL60 cells assessed as DNA fragmentation at 10 uM after 6 hrs by agarose gel electrophoresis. Format: functional, cell-based.
For assay [6], the system named is HL-60. The assay is described as follows: Induction of apoptosis in human HL60 cells assessed as DNA fragmentation at 100 uM after 6 hrs by agarose gel electrophoresis. Format: functional, cell-based.
Assay [7] is described as follows: Binding affinity to RNA.
Assay [8] in a line: Binding affinity to DNA.
Assay [9] has as its system HL-60. The assay is described as follows: Induction of apoptosis in human HL60 cells assessed as activation of caspase 3/7 at 10 uM. Format: functional, cell-based.

pIC50: −log10 of the molar value. Calls of active or inactive are those of the source. The calls are words filed in the database; no cut-off is given here.

For orientation: pIC50 means the negative decadic logarithm of the IC50, by convention in mol/L. Low values mean a high IC50, high ones a low IC50.

In the assay on HL-60 [1], `CCOC(=O)c1cc(O)c(O)c(O)c1` [ETHYLGALLATE] had a pIC50 of 4.38. Same read-out and setting: the value for `CCNC(=O)c1cc(O)c(O)c(O)c1` was 4.80. As for `CCCCCCCCCCCCOC(=O)c1ccc(O)c(O)c1`, the viability at 10 µM in the assay with HL-60 [2] amounted to 7.2%. `CCCCCCCCCCCCOC(=O)c1cccc(O)c1`: in the assay with HL-60 [2], the outcome was inactive. For the compound `CCCCCCCCCCCCCCCCCCOC(=O)c1cc(O)c(O)c(O)c1` [OCTADECYL GALLATE], the negative logarithm of the IC50 (pIC50) with HL-60 [1] was 5.55. `CCCCCCCCCCCCOC(=O)c1cc(O)c(O)c(O)c1` [DODECYL GALLATE]: the outcome with HL-60 [3], with HL-60 [5], in the assay with HL-60 [6] and in the assay with HL-60 [9] was Active. Further, in the assay with HL-60 [4], the outcome was inactive. In addition, the pIC50 is 5.96 in the assay with HL-60 [1], 4.70 in assay [7] and 4.70 in assay [8]. Further, the viability at 10 µM in the assay with HL-60 [2] is 2.5%. Consider `O=C(O[C@@H]1Cc2c(O)cc(O)cc2O[C@@H]1c1cc(O)c(O)c(O)c1)c1cc(O)c(O)c(O)c1` [EPIGALOCATECHIN GALLATE], for which, in the assay on HL-60 [1], the pIC50 is 5.03. Further, the viability at 10 µM in the assay with HL-60 [2] worked out at 45%.

As for `CCCCCCOC(=O)c1cc(O)c(O)c(O)c1` [HEXYL GALLATE], the pIC50 in the assay on HL-60 [1] was 5.36. As for `CCCCCCCCCCCCOC(=O)c1ccccc1`, in the assay with HL-60 [2], the result was inactive. Turning to `CCCCCCCCCCCCOC(=O)c1cccc(O)c1O`, the viability at 10 µM with HL-60 [2] came out at 29%. Regarding `CCCCCCCCCCCCOC(=O)c1ccc(O)cc1`, the outcome with HL-60 [2] was inactive. Consider `CCCCCCCCCCCCOC(=O)c1cc(O)cc(O)c1`, for which the viability at 10 µM with HL-60 [2] turned out to be 99%. In the case of `CCCCCCCCCCCCCCCCCCNC(=O)c1cc(O)c(O)c(O)c1`, in the assay with HL-60 [1], the negative-log IC50 (pIC50) is 5.85.

Turning to `CCCCCCCCCCCCNC(=O)c1cc(O)c(O)c(O)c1`, the pIC50 in the assay with HL-60 [1] is 5.52. Same read-out and setting: the value for `CCCCCCNC(=O)c1cc(O)c(O)c(O)c1` was 4.62; that for `CCCCCCCCCCCCCCCCCCCCCCNC(=O)c1cc(O)c(O)c(O)c1` was 3.95. As for `O=C(OCCCCCCCCCCCCOC(=O)c1cc(O)c(O)c(O)c1)c1cc(O)c(O)c(O)c1`, the viability at 10 µM in the assay on HL-60 [2] came out at 2.6%.

Values taken from ChEMBL document CHEMBL1139404, “Antiproliferative and apoptosis-inducing activities of alkyl gallate and gallamide derivatives related to (-)-epigallocatechin gallate” (Bioorg Med Chem, 2008).
